Measured values from patent US20230210871A1 (THE LIMITED COMPANY RESEARCH AND DEVELOPMENT COMPANY …, priority 2017, published 2023).

Target: BSA glycation (Bos taurus, UniProt P02769)
Test: Determination of antiglycation activity (BSA glycation by glucose, fluorescence of glycated BSA)
Type: biochemical, bovine
Conditions: for The average concentration of AGEs in the sample at a given concentration of the drug (Δ %, M ± m): BSA 1 mg/ml, glucose 500 mM, pH 7.4, 24 hours at 60° C
Procedure: The reaction mixture contains solutions of bovine serum albumin (1 mg/ml) and glucose (500 mM) in phosphate buffer (pH=7.4). To prevent bacterial growth, sodium azide in a final concentration of 0.02% is added to the buffer solution. All substances are dissolved in dimethyl sulfoxide (DMSO). […] All experimental samples are incubated for 24 hours at 60° C. At the end of the incubation period, specific fluorescence of glycated bovine serum albumin (BSA) is determined using an F-7000 spectrofluorimeter (Hitachi, Japan) at an excitation wavelength of 370 nm and an emission wavelength of 440 nm.
The calculation of the IC50 indicator is carried out by the method of regression analysis (Table 2).

Sequence of BSA glycation (P02769 25-607): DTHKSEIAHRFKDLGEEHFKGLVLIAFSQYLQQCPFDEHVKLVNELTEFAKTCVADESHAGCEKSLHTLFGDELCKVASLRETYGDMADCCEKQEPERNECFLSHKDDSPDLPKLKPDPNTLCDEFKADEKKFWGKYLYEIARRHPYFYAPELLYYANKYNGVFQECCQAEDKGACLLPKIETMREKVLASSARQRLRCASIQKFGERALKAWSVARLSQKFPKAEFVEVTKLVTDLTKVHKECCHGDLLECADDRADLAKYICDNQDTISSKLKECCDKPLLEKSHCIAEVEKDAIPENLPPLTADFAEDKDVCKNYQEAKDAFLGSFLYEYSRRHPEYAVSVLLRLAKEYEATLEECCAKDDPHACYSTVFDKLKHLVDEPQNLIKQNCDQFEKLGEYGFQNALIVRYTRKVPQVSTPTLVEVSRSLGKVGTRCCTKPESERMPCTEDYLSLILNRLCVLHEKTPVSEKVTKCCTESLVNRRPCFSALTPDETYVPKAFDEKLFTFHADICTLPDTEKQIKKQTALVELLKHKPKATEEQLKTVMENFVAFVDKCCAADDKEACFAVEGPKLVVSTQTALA

## N=C(N)NN [Aminoguanidine, aminoguanidine]
Calculated by regression analysis
  IC50: 765 µM
Drug concentration 3*10^−4 mol
  The average concentration of AGEs in the sample at a given concentration of the drug (Δ %, M ± m): 50.25 ± 1.08 Δ %
Drug concentration 3*10^−5 mol
  The average concentration of AGEs in the sample at a given concentration of the drug (Δ %, M ± m): 19.14 ± 2.24 Δ %
Drug concentration 10^−3 mol
  The average concentration of AGEs in the sample at a given concentration of the drug (Δ %, M ± m): 58.08 ± 0.72 Δ %
Drug concentration 10^−4 mol
  The average concentration of AGEs in the sample at a given concentration of the drug (Δ %, M ± m): 38.75 ± 1.52 Δ %
Drug concentration 10^−5 mol
  The average concentration of AGEs in the sample at a given concentration of the drug (Δ %, M ± m): 3.53 ± 2.31 Δ %
